The record followed here is patent US9951149B2, “Reversible heparin molecules and methods of making and using the same” (The University of North Carolina at Chapel Hill, priority 2013, dated 2018).

One series concerns the target antithrombin (AT) (Homo sapiens, UniProt P01008). The series can be described thus: Binding affinity of LMWHs to antithrombin by affinity co-electrophoresis. To be noted: 35S-labeled compounds; average of two or three determinations. The method, then:
The dissociation constant (Kd) of each sample and AT was determined using affinity co-electrophoresis (Lee, M. K. & Lander, A. D., Proc. Natl. Acad. Sci. USA 88, 2768-2772, 1991). Approximately 1500-2500 cpm of ^35S-labeled LMWH Compounds 1 to 5 was loaded per lane with zones of AT at concentrations 0, 8, 16, 32, 60, 120, 250, 500 and 1000 nM. The gel was performed at 300 mA for 2 h, dried and analyzed on a Phospholmager (Amersham Biosciences, Wauwatosa, Wis., United States of America Storm 860). The retardation coefficient was calculated at R=(M0−M)/M0, where M0 is the mobility of the polysaccharide through the zone without AT, and M is the mobility of the sample through each separation zone. The retardation coefficient was then plotted against the retardation coefficient divided by its respective concentration of AT. The slope of the line represents −1/Kd.

Series [1] addresses T1, Stabilin-2 receptor (190-HARE) (Homo sapiens, UniProt Q8WWQ8).
T1 construct: The Stabilin-2 cell line expressing the 190-HARE; expressed in transfected cells
T1 sequence (Q8WWQ8 1136-2551 limits assumed): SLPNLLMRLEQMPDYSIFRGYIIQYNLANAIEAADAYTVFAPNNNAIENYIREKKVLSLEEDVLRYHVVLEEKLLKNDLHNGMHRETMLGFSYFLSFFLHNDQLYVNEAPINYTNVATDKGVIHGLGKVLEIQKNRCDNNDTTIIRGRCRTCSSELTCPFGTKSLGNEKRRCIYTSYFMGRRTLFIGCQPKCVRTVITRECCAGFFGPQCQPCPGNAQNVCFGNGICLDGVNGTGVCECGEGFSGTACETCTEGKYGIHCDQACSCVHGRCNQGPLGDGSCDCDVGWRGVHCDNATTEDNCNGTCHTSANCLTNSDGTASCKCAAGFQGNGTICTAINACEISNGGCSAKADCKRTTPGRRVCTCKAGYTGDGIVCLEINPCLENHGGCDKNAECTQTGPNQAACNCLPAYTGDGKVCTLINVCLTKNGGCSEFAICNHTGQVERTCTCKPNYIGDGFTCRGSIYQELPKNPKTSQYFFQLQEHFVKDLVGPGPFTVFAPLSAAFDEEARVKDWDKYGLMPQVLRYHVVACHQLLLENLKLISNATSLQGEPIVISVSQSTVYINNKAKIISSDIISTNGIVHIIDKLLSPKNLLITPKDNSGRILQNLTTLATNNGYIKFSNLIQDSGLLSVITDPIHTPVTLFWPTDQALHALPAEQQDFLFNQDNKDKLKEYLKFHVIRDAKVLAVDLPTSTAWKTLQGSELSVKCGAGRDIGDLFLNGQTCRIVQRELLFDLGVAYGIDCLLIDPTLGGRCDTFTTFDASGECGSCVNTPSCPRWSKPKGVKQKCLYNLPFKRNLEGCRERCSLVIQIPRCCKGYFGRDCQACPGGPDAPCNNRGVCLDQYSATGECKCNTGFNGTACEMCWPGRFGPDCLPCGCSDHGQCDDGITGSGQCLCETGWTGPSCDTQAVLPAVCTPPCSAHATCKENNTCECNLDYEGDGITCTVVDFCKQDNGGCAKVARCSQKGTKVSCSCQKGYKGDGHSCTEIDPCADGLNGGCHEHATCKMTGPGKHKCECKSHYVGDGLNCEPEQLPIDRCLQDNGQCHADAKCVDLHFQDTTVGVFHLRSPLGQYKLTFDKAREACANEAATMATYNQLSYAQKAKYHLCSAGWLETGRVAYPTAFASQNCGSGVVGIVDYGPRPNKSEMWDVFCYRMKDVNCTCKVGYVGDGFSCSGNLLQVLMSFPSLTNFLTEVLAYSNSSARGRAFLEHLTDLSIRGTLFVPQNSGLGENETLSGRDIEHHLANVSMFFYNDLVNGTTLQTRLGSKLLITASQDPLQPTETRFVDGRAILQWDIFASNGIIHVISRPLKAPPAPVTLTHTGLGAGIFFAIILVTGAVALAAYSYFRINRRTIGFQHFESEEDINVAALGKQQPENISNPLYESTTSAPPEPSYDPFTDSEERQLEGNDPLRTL
Put plainly: Stabilin-2 mediated endocytosis of 35S-labeled LMWHs in Flp-In-293 cells. It counts as cell-based. Conditions: Flp-In-293 cells expressing 190-HARE, 3 h at 37° C. (FIG. 5). As to the method: FIG. 5 is a histogram of endocytosis of ^35S-labeled synthetic LMWHs in Flp-In-293 cells. The cells were stably transfected with the plasmid expressing the Stabilin-2 receptor (190-HARE). The internalization value was calculated by subtracting the nonspecific internalization background from the total internalization of a ^35S-labeled Compound. The background was determined by mixing the ^35S-labeled Compound with at least 100-fold molecular excess of unlabeled UFH.
The Stabilin-2 cell line expressing the 190-HARE (Harris et al., J. Biol. Chem. 279, 36201-36209, 2004) was grown to 90% confluency with DMEM+8% FBS+50 μgml^−1 Hygromycin B in 24-well plates for at least 2 days prior to the experiment in a standard tissue culture incubator. Endocytosis medium (DMEM+0.05% BSA) containing a known amount of ^35S-labeled LMWH Compound, LOVENOX®, or UFH was added to each well in triplicate and allowed to incubate with the cells for 3 h at 37° C., 5% CO2. Receptor specific internalization was assessed by incubating each radiolabeled ligand with at least a 100-fold excess of unlabeled UFH. The cells were then washed with Hank's Balanced Salt Solution (1.26 mM CaCl2, 5.33 mM KCl, 0.44 mM KH2PO4, 0.5 mM MgCl2-6H2O, 0.41 mM MgSO4-7H2O, 138 mM NaCl, 4.0 mM NaHCO3, […], 0.3 mM phenol red, pH 7.2) three-times, and cells were lysed in 0.4 ml 0.3 N NaOH. 0.35 ml of the cell lysate mixture was mixed with 4 ml scintillation fluid (Perkin Elmer, Waltham, Mass., United States of America) and radioactivity was measured by a Beckman Coulter LS6500 scintillation counter. The remaining 0.05 ml cell lysate was used to determine protein levels using the Bradford reagent (Sigma-Aldrich). The data was calculated as the percentage of specific CPM internalized of the total amount added per μg cell lysate protein±standard deviation.

Sequence of antithrombin (AT) (P01008 33-464): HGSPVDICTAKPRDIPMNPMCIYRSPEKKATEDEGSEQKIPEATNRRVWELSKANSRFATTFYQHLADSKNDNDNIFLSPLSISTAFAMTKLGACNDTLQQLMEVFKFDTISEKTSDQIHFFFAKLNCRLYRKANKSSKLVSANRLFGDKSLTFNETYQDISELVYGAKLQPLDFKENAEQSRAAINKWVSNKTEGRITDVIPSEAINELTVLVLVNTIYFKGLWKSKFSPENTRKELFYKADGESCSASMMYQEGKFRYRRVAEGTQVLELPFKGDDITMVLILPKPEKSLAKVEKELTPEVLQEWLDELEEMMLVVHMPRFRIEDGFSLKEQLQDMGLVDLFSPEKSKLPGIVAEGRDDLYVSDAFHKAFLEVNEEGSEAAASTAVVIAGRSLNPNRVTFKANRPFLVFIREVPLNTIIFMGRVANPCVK

As usually defined, the Kd is a measure of binding affinity in units of concentration. For `O=C(O)C1OC(OC2C(COS(=O)(=O)O)OC(OC3C(C(=O)O)OC(OC4C(COS(=O)(=O)O)OC(OC5C(C(=O)O)OC(Oc6ccc([N+](=O)[O-])cc6)C(O)C5O)C(NS(=O)(=O)O)C4O)C(OS(=O)(=O)O)C3O)C(NS(=O)(=O)O)C2OS(=O)(=O)O)C(O)C(O)C1OC1OC(COS(=O)(=O)O)C(O)C(O)C1NS(=O)(=O)O` (stereo not shown) [Compound 1], the equilibrium dissociation constant (Kd) on antithrombin (AT) was determined as 7 nM. Besides, the “endocytosis mediated by Stabilin-2 (internalization)” value (“endocytosis mediated” below) in series [1] is recorded as “very low internalization”.

`O=C(O)C1OC(OC2C(COS(=O)(=O)O)OC(OC3C(C(=O)O)OC(OC4C(COS(=O)(=O)O)OC(OC5C(C(=O)O)OC(OC6C(COS(=O)(=O)O)OC(OC7C(C(=O)O)OC(Oc8ccc([N+](=O)[O-])cc8)C(O)C7O)C(NS(=O)(=O)O)C6O)C(OS(=O)(=O)O)C5O)C(NS(=O)(=O)O)C4O)C(OS(=O)(=O)O)C3O)C(NS(=O)(=O)O)C2OS(=O)(=O)O)C(O)C(O)C1OC1OC(COS(=O)(=O)O)C(O)C(O)C1NS(=O)(=O)O` (stereo not shown) [Compound 2] showed a dissociation constant (Kd) on antithrombin (AT) of 8 nM. Moreover, in series [1], the “endocytosis mediated” value is “very low internalization”.

The compound `O=C(O)C1OC(OC2C(COS(=O)(=O)O)OC(OC3C(C(=O)O)OC(OC4C(COS(=O)(=O)O)OC(OC5C(C(=O)O)OC(OC6C(COS(=O)(=O)O)OC(OC7C(C(=O)O)OC(OC8C(COS(=O)(=O)O)OC(OC9C(C(=O)O)OC(Oc%10ccc([N+](=O)[O-])cc%10)C(O)C9O)C(NS(=O)(=O)O)C8O)C(OS(=O)(=O)O)C7O)C(NS(=O)(=O)O)C6O)C(OS(=O)(=O)O)C5O)C(NS(=O)(=O)O)C4O)C(OS(=O)(=O)O)C3O)C(NS(=O)(=O)O)C2OS(=O)(=O)O)C(O)C(O)C1OC1OC(COS(=O)(=O)O)C(O)C(O)C1NS(=O)(=O)O` (stereo not shown) [Compound 3] showed a Kd on antithrombin (AT) of 5 nM. Besides, the “endocytosis mediated” value in series [1] was “significant endocytosis”.

Compound `CC(=O)NC1C(OC2C(C(=O)O)OC(OC3C(COS(=O)(=O)O)OC(OC4C(C(=O)O)OC(OC5C(COS(=O)(=O)O)OC(OC6C(C(=O)O)OC(OC7C(COS(=O)(=O)O)OC(OC8C(C(=O)O)OC(OC9C(COS(=O)(=O)O)OC(OC%10C(C(=O)O)OC(OC%11C(COS(=O)(=O)O)OC(OC%12C(C(=O)O)OC(Oc%13ccc([N+](=O)[O-])cc%13)C(O)C%12O)C(NS(=O)(=O)O)C%11O)C(OS(=O)(=O)O)C%10O)C(NS(=O)(=O)O)C9O)C(OS(=O)(=O)O)C8O)C(NS(=O)(=O)O)C7O)C(OS(=O)(=O)O)C6O)C(NS(=O)(=O)O)C5O)C(OS(=O)(=O)O)C4O)C(NS(=O)(=O)O)C3OS(=O)(=O)O)C(O)C2O)OC(COS(=O)(=O)O)C(O)C1O` (stereo not shown) [Compound 4] registered a Kd at antithrombin (AT) of 30 nM. The “endocytosis mediated” value in series [1] is “significant endocytosis”.

`CC(=O)NC1C(OC2C(C(=O)O)OC(OC3C(COS(=O)(=O)O)OC(OC4C(C(=O)O)OC(OC5C(COS(=O)(=O)O)OC(OC6C(C(=O)O)OC(OC7C(COS(=O)(=O)O)OC(OC8C(C(=O)O)OC(OC9C(COS(=O)(=O)O)OC(OC%10C(C(=O)O)OC(OC%11C(COS(=O)(=O)O)OC(OC%12C(C(=O)O)OC(Oc%13ccc([N+](=O)[O-])cc%13)C(O)C%12O)C(NS(=O)(=O)O)C%11O)C(OS(=O)(=O)O)C%10O)C(NS(=O)(=O)O)C9OS(=O)(=O)O)C(OS(=O)(=O)O)C8O)C(NS(=O)(=O)O)C7O)C(OS(=O)(=O)O)C6O)C(NS(=O)(=O)O)C5O)C(OS(=O)(=O)O)C4O)C(NS(=O)(=O)O)C3OS(=O)(=O)O)C(O)C2O)OC(COS(=O)(=O)O)C(O)C1O` (stereo not shown) [Compound 5] yielded a Kd at antithrombin (AT) of 28 nM. Also, the “endocytosis mediated” value in series [1] is on record as “significant endocytosis”.
